Drawing on PubChem BioAssay (NCI), this text covers TGI for 18 compounds.

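48-hour exposure; five concentrations; linearly interpolated endpoints. Definition used: TGI = concentration required for complete inhibition of growth.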

Common to all, as to experiment: NCI-60 cell line screen, 48 h
Assay [1] concerns SF-295 CNS.
In assay [2] the test system is DMS 273 small cell lung.
Assay [3] has as its system UACC-62 melanoma.
In assay [4] the test system is EKVX NSCLC.
Assay [5] relates to DMS 114 small cell lung.
Assay [6] has as its system RXF 393 renal.
Assay [7] concerns M14 melanoma.
Assay [8] deals with U251 CNS.
The subject of assay [9] is SNB-19 CNS.
Assay [10] deals with A549 NSCLC.
The subject of assay [11] is PC-3 prostate.

For `C\C=C/C=C/C=C/C(=O)O`, the TGI in [1], in assay [2], in assay [3], in [4], in assay [5] and in assay [6] was above 100 µM each time. The TGI in [7], in [8], in assay [9] and in assay [10] was above 100 µM throughout.

With `O=C(Nc1ccc(Cl)cc1)c1cccc([N+](=O)[O-])c1O`, the TGI is 15.5 µM in assay [1]; 23.3 µM in assay [2]; 17.6 µM in [3]; 14.8 µM in [4]; 14.8 µM in assay [5]; 6.67 µM in [6]. The TGI in assay [7] is 32.9 µM; in [8], 48.5 µM; in assay [9], above 50.9 µM; in assay [10] it was above 100 µM.

Regarding `Cc1c(NC(=S)N/N=C\C(=N/NC(=S)Nc2c(C)n(C)n(-c3ccccc3)c2=O)c2ccccc2)c(=O)n(-c2ccccc2)n1C`, the TGI in assay [1], in assay [11], in assay [3], in assay [4], in assay [6] and in [7] was above 100 µM throughout. Moreover, the TGI in [8], in assay [9] and in [10] was above 100 µM each time.

For `O=C(O)CS(=O)c1ccc2c3c(cccc13)C(=O)c1ccccc1-2` (centres undefined), the TGI in assay [1], in assay [11], in assay [3], in [4], in [6] and in assay [7] was above 100 µM throughout. In addition, the TGI in assay [8], in [9] and in assay [10] was above 100 µM in each case.

With `O=C1C=C(N2CCCC2)C(=O)c2c(O)ccc(O)c21`, the TGI in assay [1], in assay [11], in [3], in assay [4], in [6] and in assay [7] was above 10 µM throughout. Also, the TGI in [8] is above 1 µM; in assay [9], above 10 µM; in [10], above 10 µM.

As to `NC(CCl)=NC1CN2CCC1CC2` (centres undefined), the TGI in assay [1], in assay [11], in assay [3], in assay [4], in [6] and in assay [7] was above 100 µM each time. For the same compound, the TGI in assay [8], in assay [9] and in assay [10] was above 100 µM throughout.

Consider `CC(=O)Nc1ccc(N2C(=O)CS(=O)(=O)C2c2cccc(Oc3ccccc3)c2)cc1` (centres undefined), for which the TGI came out at 36.7 µM in assay [1]; 42.8 µM in [11]; 27.9 µM in assay [3]; 35.5 µM in assay [4]; 39.7 µM in [6]; 33.9 µM in [7]. Further, the TGI in assay [8] was 32.6 µM; in [9], 36.2 µM; in assay [10], 48.8 µM.

As for `CCN(CC)c1ccc(/C=c2\nc(-c3ccccc3)n3c2nc2ccccc23)cc1`, the TGI was 45.8 µM in assay [1]; 8.7 µM in assay [11]; 30.9 µM in [3]; 35.4 µM in [4]; 61 µM in assay [6]; 37.9 µM in assay [7]. Besides, the TGI in assay [8], in assay [9] and in assay [10] was above 100 µM throughout.

Turning to `Cc1c(C#N)c2nnn(-c3ccc([N+](=O)[O-])cc3)c(=O)n2c1-c1ccccc1`, the TGI in assay [1] was determined as 14 µM; in [11], 14.7 µM; in assay [3], 19.4 µM; in assay [4], 32 µM; in assay [6], 31.2 µM; in [7], 25 µM. For the same compound, the TGI in assay [8] is 14.5 µM; in [9] it was 36.7 µM; in assay [10], above 100 µM.

In the case of `Cc1ccc(C(=O)Cc2nc3ncccc3[nH]c2=O)cc1`, the TGI in assay [1], in [11], in assay [3], in assay [4], in [6] and in assay [7] was above 100 µM each time. Moreover, the results for the TGI in [8], in assay [9] and in [10] were 52.7 µM, above 100 µM and 26.7 µM, respectively.

For `COc1cc(CCNC2=CC(=O)c3cccnc3C2=O)ccc1O`, the TGI in assay [1] amounted to 2.6 µM; in [11], 18.7 µM; in assay [3], 2.7 µM; in assay [4], 11.5 µM; in [6], 4.07 µM; in [7] it was 2.98 µM. Besides, the TGI in assay [8] was 7.05 µM; in assay [9] it was 4.04 µM; in [10], 3.27 µM.

As for `COc1ccc2c(c1)c(=O)c1c(NCCCN(C)CCCNc3ccc4c(=O)n(CCN(C)C)c(=O)n5c6ccc(OC)cc6c(=O)c3c45)ccc3c(=O)n(CCN(C)C)c(=O)n2c31`, the TGI in [1] is 3.48 µM; in assay [11] it was 0.858 µM; in assay [3], 0.956 µM; in assay [4] it was 1.3 µM; in [6], 0.602 µM; in assay [7] it was 2.58 µM. In addition, the TGI in assay [8] came to 1.26 µM; in [9], 2.17 µM; in assay [10] it was 1.26 µM.

As to `c1ccc2c(c1)nc1n2CCNC1`, the TGI in [1], in [11], in [3], in assay [4], in assay [6] and in assay [7] was above 100 µM in each case. The TGI in [8], in [9] and in assay [10] was above 100 µM each time.

With `COc1ccc(C2c3cc4c(cc3OC(NNC(N)=O)C2C)OCO4)cc1` (centres undefined), the TGI in assay [1] is 21.1 µM; in [11], 53.8 µM; in [3] it was above 70.2 µM; in [4], above 100 µM; in [6], 54.5 µM; in assay [7], above 60.1 µM. For the same compound, the TGI in assay [8] was 35.2 µM; in [9], above 100 µM; in assay [10] it was above 100 µM.

For the compound `CC(C)=CCC/C(=C\CC/C(=C\CCc1ccoc1)C(=O)O)C(=O)O`, the TGI in assay [1], in [11], in assay [3], in [4], in assay [6] and in [7] was above 100 µM throughout. For the same compound, the TGI in assay [8], in assay [9] and in assay [10] was above 100 µM in each case.

In the case of `Cc1ccc(C2(N3CCCC3)OC(C)(C)c3cccc4cccc2c34)cc1` (centres undefined), the TGI in assay [1] is 28 µM; in assay [11] it was 36.2 µM; in assay [3], 27.5 µM; in assay [4], 24 µM; in assay [6], 27.1 µM; in assay [7], 34 µM. The TGI in assay [8] turned out to be 29.4 µM; in assay [9], 29.8 µM; in assay [10] it was 24.6 µM.

`CC1(C)C2CCC1(C)C(N/C(=C(/C(Cl)=C(Cl)Cl)[N+](=O)[O-])n1nnc3ccccc31)C2` (centres undefined): the TGI in [1] was 52.3 µM; in assay [11], 48.3 µM; in [3], 46 µM; in assay [4] it was above 100 µM; in [6], 36.5 µM; in assay [7] it was above 100 µM. The results for the TGI in assay [8], in [9] and in [10] were 43.3 µM, 55.7 µM and above 100 µM, respectively.

Consider `COc1ccc(/C=C2\Sc3nnc(C)n3N=C2c2cc(F)c(Cl)cc2Cl)cc1OC`, for which the TGI in assay [1] came to 53.6 µM; in assay [11], 37.7 µM; in assay [3] it was 33.4 µM; in [4] it was 22.7 µM; in assay [6], 32.7 µM; in assay [7] it was 27.5 µM. Further, the TGI in assay [8] was determined as 30.2 µM; in assay [9], 11.8 µM; in assay [10], 56.2 µM.
